Data published in patent US20240309022A1, “Metal-Organic Frameworks with Pyrazole-Based Building Blocks” (BASF SE, priority 2021, published 2024).

Key:
N2O emission = experiment: N2O inhibition in vegetation hall over 10 days using ammonium sulfate as fertilizer; conditions: 10 days cumulative
Source text: N2O inhibition in vegetation hall over 10 days (cumulative values) using AS (ammonium sulfate) as fertilizer: […]

[1] = tested on: nitrification in soil (microbial biomass); experiment: Soil incubation test for inhibition of nitrification (Example 4); format: cell-based; conditions: n=4
Description: 100 g soil is filled into 500 ml plastic bottles (e.g. soil sampled from the field) and is moistened to 50% water holding capacity. The soil is incubated at 20° C. for two weeks to activate the microbial biomass. 1 ml test solution, containing the components of the mixture in the appropriate concentration (usually from 0.1 to 3% of nitrogen N), or DMSO and 10 mg nitrogen in the form of ammoniumsulfate-N is added to the soil and everything mixed well. Bottles are capped but loosely to allow air exchange. The bottles are then incubated at 20° C. for 0, 14 and 28 days.
For analysis, 300 ml of a 1% K2SO4-solution is added to the bottle containing the soil and shaken for 2 hours in a horizontal shaker at 150 rpm. Then the whole solution is filtered through a filter (Macherey-Nagel Filter MN 807%). Ammonium and nitrate content is then analyzed in the filtrate in an autoanalyzer at 550 nm (Merck, AA11).
The inhibition (NI@a specified concentration) is calculated as follows:
4 tests regarding the inhibition of nitrification were performed in each case (n=4).
The tested amounts were 0.3 and 1% by weight of component (ii) of the MOF relative to NH4—N.

[2] = Evaporation of active ingredient in thermogravimetric analyzer; format: physicochemical; conditions: during 1 hour at 30° C.; continuous flow of N2 gas
Description: The evaporation of 5-ethoxy-3-methyl-1H-pyrazole and the corresponding Zn MOF of 5-ethoxy-3-methyl-1H-pyrazole, i.e. Zinc-5-Ethoxy-3-Methyl-Pyrazolate, has been measured in a thermogravimetric analyzer instrument by the following procedure. A few milligrams of the test substance were positioned on the probe of the thermogravimetric analyzer, in a continuous flow of N2 gas. After equilibrating the system to 30° C., the weight of the sample was monitored over a time period of 65 minutes at a temperature of 30° C.

[3] = tested on: nitrification in soil Limburgerhof (microbial community); experiment: Soil incubation with inhibitor mixed into ammonium sulfate nitrate melt (Example 5); format: cell-based; conditions: after 14 days, added to ASS melt at 125° C.
Description: The MOF of Example 3 was tested as follows in terms of the inhibition of nitrification: The nitrification inhibition capacity was tested after incubation of soil. In the experiment 50 g soil (soil Limburgerhof with pH (CaCl2)) 6, 73% sand, 23% silt, 4% clay, which is classified according to FAO as sandy loam) was filled into 250 ml plastic bottles and was moistened to 50% water holding capacity. The soil was incubated at 20° C. for about one week prior to the experiments to activate the microbial community. Ammonium sulfate nitrate (ASS) was heated to 125° C. in presence of 4% water. After the ASS had melted, Zinc-5-Ethoxy-3-Methyl-Pyrazolate or the underlying pyrazole compound was added and was mixed in for 1 minute. Afterwards, the melted ASS was poured onto a metal plate and cooled down to room temperature. Depending on treatment, 26.3 mg the treated ASS were milled and added to the soil and everything was mixed well. […] The fertilizer amount used for the experiment was calculated to contain 5 mg nitrogen in the form of ammonium sulfate-N(NH4—N)). […] Ammonium and nitrate content is then analyzed in the filtrate using an autoanalyzer. Ammonium was quantified via an indophenol blue dye at 660 nm, and nitrate via an azo dye at 540 nm. The nitrification inhibition is expressed as % of NH4—N recovery from fertilized NH4—N-(100%) after subtraction of unfertilized control soil.

[4] = 0.3 wt.-% of pyrazolate relative to NH4—N, after 14 days
[5] = 0.3 wt.-% of pyrazolate relative to NH4—N, after 28 days
[6] = 1.0 wt.-% of pyrazolate relative to NH4—N, after 14 days
[7] = 1.0 wt.-% of pyrazolate relative to NH4—N, after 28 days

| % loss (evaporation of active ingredient) [2] [%] | SMILES | % Emission (N2O) (N2O emission; 0.3 wt.-% relative to NH4—N) [%] | % Inhibition (N2O) (N2O emission; 0.3 wt.-% relative to NH4—N) [%] | Emission cumulative minus background (N2O) (N2O emission; 0.3 wt.-% relative to NH4—N) | % Emission (N2O) (N2O emission; 1.0 wt.-% relative to NH4—N) [%] | % Inhibition (N2O) (N2O emission; 1.0 wt.-% relative to NH4—N) [%] | Emission cumulative minus background (N2O) (N2O emission; 1.0 wt.-% relative to NH4—N) | Reduction of NO3− production [1, 4] | Residual amounts of NH4 [1, 4] | Reduction of NO3− production [1, 5] | Residual amounts of NH4 [1, 5] | Reduction of NO3− production [1, 6] | Residual amounts of NH4 [1, 6] | Reduction of NO3− production [1, 7] | Residual amounts of NH4 [1, 7] | Residual amounts of NH4 (% of NH4—N recovery from fertilized NH4—N) ([3]; 0.3 wt.-% relative to NH4—N) [%] | Residual amounts of NH4 (% of NH4—N recovery from fertilized NH4—N) ([3]; 0.8 wt.-% relative to NH4—N) [%] |
| --- | --- | --- | --- | --- | --- | --- | --- | --- | --- | --- | --- | --- | --- | --- | --- | --- | --- |
|  | COc1cc(C)n[nH]1 [5-Methoxy-3-Methyl-1H-Pyrazole] | 10.4 | 89.6 | 393 | 5.0 | 95.0 | 191 | 75 | 70 | 40 | 34 | 88 | 90 | 74 | 68 |  |  |
| 5.6 | CCOc1cc(C)n[nH]1 [5-ethoxy-3-methyl-1H-pyrazole] |  |  |  |  |  |  |  |  |  |  |  |  |  |  | 45.4 | 57.0 |
